The source of these data is patent publication US11584775B2, “C4-modified oleanolic acid derivatives for inhibition of IL-17 and other uses” (REATA PHARMACEUTICALS, INC., priority 2015, dated 2023).

One assay has as its system NRF2. Put plainly: AREc32 luciferase reporter assay. In kind it is cell-based, human. The conditions noted are these: EC2×: concentration required to increase GST ARE Luciferase reporter activity by 2-fold; AREc32 cells, 19 hours. An excerpt: B. AREc32 Luciferase Reporter Assay
The AREc32 luciferase reporter assay allows for quantitative assessment of the endogenous activity of the Nrf2 transcription factor in cultured mammalian cells. AREc32 cells are derived from MCF-7 human breast carcinoma cells that were stably transfected with a reporter construct that contains the firefly luciferase gene located downstream of eight copies of the rat GSTA2 antioxidant response element (ARE) sequence (Wang et al., 2006; CXR Biosciences). Active NRF2 binds to the ARE sequences and increases expression of the firefly luciferase gene. To assess the NRF2-activating potential of the test compounds, AREc32 cells were plated in black 96-well plates at a density of 20,000 cells per well in triplicate in DMEM+10% FBS+0.8 mg/mL Geneticin and incubated at 37° C. with 5% CO2 in a humidified atmosphere. The next day, cells were treated with DMSO (vehicle) or test compound (concentration ranges of 0.4-200 nM or 2-1000 nM) for 19 hours. Luciferase activity was determined using the ONE-Glo Luciferase assay (Promega). The luminescence signal was measured on a BMG Pherastar microplate reader. The mean luminescence value from test compound-treated wells was normalized to that from DMSO-treated wells and was represented as fold-induction. Data were analyzed using GraphPad Prism version 6.00 for Windows, GraphPad Software, La Jolla Calif. USA. A non-linear regression curve with log (agonist) vs. response using a variable slope was used to fit the data. Where applicable, a maximum threshold value of 50-fold over DMSO was set. EC2× values were interpolated from the curve. EC2× corresponds to the concentration of test compound required to increase GST ARE Luciferase reporter activity by 2-fold.
In general terms: A reporter such as luciferase makes a cellular process visible.

The subject of another assay is hIL17. Put plainly: IL-17 release from differentiated primary human T-cells (IL-17A HTRF assay). In kind it is cell-based. The conditions noted are these: inhibition of IL-17A levels; primary human CD4+ T cells differentiated into Th17 cells, 46-hour incubation. The method, then:
D. IL-17 Release from Differentiated Primary Human T-Cells and Cell Viability
Primary human cryopreserved CD4+ T Cells (Lonza, donor #0000402103) were plated in Lymphocyte Growth Medium-3 (LGM-3, Lonza) according to the manufacturer's recommendations, and allowed to recover for approximately 3 hours at 37° C. with 5% CO2 in a humidified atmosphere. After the recovery step, cells were collected by centrifugation and re-plated in 96-well plates at a density of ˜140,000 cells per well in LGM-3 medium that contained DMSO (vehicle) or test compound (2-500 nM or 4-1000 nM concentration range). Triplicate wells were plated for each test condition. DMSO (final concentration ≤0.1%) was used as the vehicle. Immediately after plating, CD4+ T cells were activated by adding Dynabeads Human T-Activator CD3/CD28 (Life Technologies; bead-to-cell ratio of 1:2.5) and differentiated into Th17 cells by adding a mixture of the following cytokines: transforming growth factor-β (TGF-β, 5 ng/mL), IL-6 (20 ng/mL), IL-23 (20 ng/mL), and […] (10 ng/mL). Undifferentiated control cells received only cytokine IL-2 (50 ng/mL). All human recombinant cytokines were purchased from R&D Systems. Following a 46-hour incubation at 37° C. with 5% CO2 in a humidified atmosphere, the plates were centrifuged for 3 minutes at 250×g, and half of the supernatant was transferred to a new plate to be used in the IL-17A assay (see below). Cell viability was assessed in the original plate using the CyQuant Direct Assay (Life Technologies). CyQuant values from test compound samples were normalized to those from DMSO-treated samples. The concentration of IL-17A in the supernatant was measured using the Homogeneous Time-Resolved Fluorescence (HTRF) assay (Cisbio Bioassays) according to the manufacturer's protocol. The assay was performed at room temperature in low volume, solid white 384-well plates (Greiner Bio-One). Samples and standards (serially-diluted human recombinant IL-17A (0 to 5,000 pg/mL concentration range; Cisbio Bioassays) were incubated with the anti-human IL-17A antibody conjugate for 16 hours and fluorescence was measured using a Pherastar FS microplate reader (BMG Labtech) in the HTRF mode (excitation at 337 nm and emission at 665 nm and 620 nm). IL-17A concentrations were assessed in duplicate aliquots of supernatant from each well resulting in a total of six readings per test condition. The 665 nm/620 nm signal ratio was calculated and the concentration of IL-17A in each sample was determined by interpolation from the standard curve. IL-17A values from test compound samples were normalized to those from DMSO-treated samples. Data were analyzed using GraphPad Prism version 6.00 for Windows (GraphPad Software, La Jolla Calif. USA). A non-linear regression analysis with log (inhibitor) vs. normalized response using a variable slope was applied to fit the data and determine the IC50 values for inhibition of IL-17A levels and cell viability.
For orientation: TR-FRET usually uses a lanthanide donor and a delayed reading to cut background.

In another assay the target is T1, human RORγ (Homo sapiens, UniProt P51449).
T1 sequence (P51449 269-508 limits assumed): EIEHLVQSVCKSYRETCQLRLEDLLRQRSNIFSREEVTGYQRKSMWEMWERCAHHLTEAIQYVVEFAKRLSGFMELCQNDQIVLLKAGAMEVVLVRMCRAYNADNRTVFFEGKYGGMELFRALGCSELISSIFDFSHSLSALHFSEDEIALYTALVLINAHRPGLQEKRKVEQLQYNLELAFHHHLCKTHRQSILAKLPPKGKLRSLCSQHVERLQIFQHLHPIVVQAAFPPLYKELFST
Put plainly: RORγ assay (GAL4-RORγ hybrid luciferase reporter, inverse-agonist activity). In kind it is cell-based. The following applies: GAL4-RORγ hybrid reporter cells, 23 hours. An excerpt:
C. RORγ Assay and Cell Viability
The RORγ assay system was purchased from Indigo Biosciences. This nuclear receptor assay utilizes a human cell line that has been engineered to express a hybrid form of the Human RAR-related Orphan Receptor Gamma (RORγ) at high levels. The N-terminal DNA binding domain (DBD) of the native RORγ receptor was substituted with the yeast GAL4-DBD to generate the GAL4-RORγ hybrid nuclear receptor. The reporter cell line is transfected with a plasmid that encodes the beetle luciferase gene under the control of the GAL4 upstream activating sequence (UAS). GAL4 binds to the UAS and increases transcription of downstream target genes. […] To assess the RORγ inverse-agonist activity of the test compounds, reporter cells were plated in white 96-well plates in triplicate and were treated with DMSO (vehicle) or test compound (concentration ranges of 0.4-200 nM or 2-1000 nM) at 37° C. with 5% CO2 in a humidified atmosphere for 23 hours. After this incubation, luciferin was added to the wells and luciferase activity was determined by measuring the luminescence signal using a BMG Pherastar microplate reader. Viability was determined using the Live Cell Multiplex Assay (Indigo Biosciences). Values from test compound samples were normalized to those from DMSO-treated samples. Data were analyzed using GraphPad Prism version 6.00 for Windows (GraphPad Software, La Jolla Calif. USA). A non-linear regression analysis with log (inhibitor) vs. normalized response using a variable slope was applied to fit the data and determine the IC50 values for inhibition of RORγ and cell viability.

The subject of assay [1] is IFNγ-induced Nitric Oxide production. Kind of assay: Nitric oxide production assay in RAW 264.7 mouse macrophages. In kind it is cell-based. The following applies: RAW264.7, suppression of IFNγ-induced NO production normalized to cell viability (WST-1), RAW 264.7, 24 hours IFNγ. The method, then: A. Nitric Oxide Production Assay and Cell Viability
RAW 264.7 mouse macrophages were plated in 96-well plates at a density of 30,000 cells per well in triplicate in RPMI 1640+0.5% FBS and incubated at 37° C. with 5% CO2 in a humidified atmosphere. The next day, cells were pre-treated with DMSO (vehicle) or test compound (concentration ranges of 0.4-200 nM or 2-1000 nM) for 2 hours and then treated with recombinant mouse IFNγ (R&D Systems) for 24 hours. Nitric oxide concentration in media was determined using the Griess reagent system (Promega). Cell viability was determined using WST-1 reagent (Roche). Values from test compound samples were normalized to those from DMSO/IFNγ-treated samples. IC50 values were determined based on the suppression of IFNγ-induced Nitric Oxide production normalized to cell viability.

As to `Cc1noc([C@]23CCC(C)(C)C[C@H]2[C@H]2C(=O)C=C4[C@@]5(C)C=C(C#N)C(=O)C(C)(C)[C@@H]5CC[C@@]4(C)[C@]2(C)CC3)n1` [Comparison Compound #9, reference compound], the “EC2x: concentration giving 2-fold induction of ARE luciferase reporter” value in the assay on NRF2 was found to be 12 nM. Moreover, the IC50 in the assay on hIL17 was determined as 18 nM; at human RORγ, 176 nM; in assay [1], 1.2 nM.

In the case of `COC(=O)[C@]12CCC(C)(C)C[C@H]1[C@H]1C(=O)C=C3[C@@]4(C)C=C(C#N)C(=O)[C@@](C)(CO)[C@@H]4CC[C@@]3(C)[C@]1(C)CC2` [Comparison Compound #300, reference compound], the “EC2x: concentration giving 2-fold induction of ARE luciferase reporter” value in the assay on NRF2 is given as 34 nM. For the same compound, the IC50 in the assay on hIL17 was 18 nM; at human RORγ it was 152 nM; in assay [1], 7.4 nM.

`COC(=O)[C@]12CCC(C)(C)C[C@H]1[C@H]1C(=O)C=C3[C@@]4(C)C=C(C#N)C(=O)[C@](C)(CO)[C@@H]4CC[C@@]3(C)[C@]1(C)CC2` [Comparison Compound #301, reference compound]: the “EC2x: concentration giving 2-fold induction of ARE luciferase reporter” value with NRF2 was determined as 8 nM. The figures for the IC50 (with hIL17; at human RORγ; in assay [1]) were 17 nM, 144 nM and 1.8 nM, respectively.

As to `COCOC[C@@]1(C)C(=O)C(C#N)=C[C@]2(C)C3=CC(=O)[C@@H]4[C@@H]5CC(C)(C)CC[C@]5(C(=O)OC)CC[C@@]4(C)[C@]3(C)CC[C@@H]12` [Comparison Compound #302, reference compound], in the assay with NRF2, the “EC2x: concentration giving 2-fold induction of ARE luciferase reporter” value was 78 nM. For the same compound, the IC50 amounted to 24 nM with hIL17, 91 nM on human RORγ and 13.1 nM in assay [1].

Take `COC(=O)[C@]12CCC(C)(C)C[C@H]1[C@H]1C(=O)C=C3[C@@]4(C)C=C(C#N)C(=O)C[C@@H]4CC[C@@]3(C)[C@]1(C)CC2` [Compound T1]: the “EC2x: concentration giving 2-fold induction of ARE luciferase reporter” value in the assay on NRF2 is reported as 50 nM. Also, the IC50 amounted to 40 nM in the assay with hIL17, 144 nM on human RORγ and 8.1 nM in assay [1].

As to `COC(=O)[C@]12CCC(C)(C)C[C@H]1[C@H]1C(=O)C=C3[C@@]4(C)C=C(C#N)C(=O)[C@@](C)(C(=O)OC)[C@@H]4CC[C@@]3(C)[C@]1(C)CC2` [Compound T2, dimethyl (4S,4aR,6aS,6bR,8aS,12aS,12bR,14bS)-2-cyano-4,6a,6b,11,11,14b-hexamethyl-3,13-dioxo-4,4a,5,6,6a,6b,7,8,9,10,11,12,12a,12b,13,14b-hexadecahydropicene-4,8a(3H)-dicarboxylate], the “EC2x: concentration giving 2-fold induction of ARE luciferase reporter” value in the assay on NRF2 was determined as 204 nM. The results for the IC50 (in the assay with hIL17; at human RORγ; in assay [1]) were 19 nM, 216 nM and 92 nM, respectively.

In the case of `COC(=O)[C@]12CCC(C)(C)C[C@H]1[C@H]1C(=O)C=C3[C@@]4(C)C=C(C#N)C(=O)[C@](C)(C(=O)OC)[C@@H]4CC[C@@]3(C)[C@]1(C)CC2` [Compound T3, dimethyl (4R,4aR,6aS,6bR,8aS,12aS,12bR,14bS)-2-cyano-4,6a,6b, 11,11,14b-hexamethyl-3,13-dioxo-4,4a,5,6,6a,6b,7,8,9,10,11,12,12a,12b,13,14b-hexadecahydropicene-4,8a(3H)-dicarboxylate], the “EC2x: concentration giving 2-fold induction of ARE luciferase reporter” value in the assay with NRF2 amounted to 48 nM. For the same compound, the values for the concentration for half-maximal inhibition (IC50) (in the assay with hIL17; at human RORγ; in assay [1]) were 18 nM, 169 nM and 22.3 nM, respectively.

For `COC(=O)[C@]12CCC(C)(C)C[C@H]1[C@H]1C(=O)C=C3[C@@]4(C)C=C(C#N)C(=O)[C@@](C)(C(F)F)[C@@H]4CC[C@@]3(C)[C@]1(C)CC2` [Compound T4, methyl (4aS,6aR,6bS,8aR,9S,12aS,14aR,14bS)-11-cyano-9-(difluoromethyl)-2,2,6a,6b,9,12a-hexamethyl-10,14-dioxo-1,3,4,5,6,6a,6b,7,8,8a,9,10,12a,14,14a,14b-hexadecahydropicene-4a(2H)-carboxylate], the “EC2x: concentration giving 2-fold induction of ARE luciferase reporter” value with NRF2 is listed as 36 nM. The 50% inhibitory concentration (IC50) with hIL17 was determined as 29 nM; at human RORγ it was 234 nM; in assay [1], 19.6 nM.

Regarding `COC(=O)[C@]12CCC(C)(C)C[C@H]1[C@H]1C(=O)C=C3[C@@]4(C)C=C(C#N)C(=O)[C@@](C)(O)[C@@H]4CC[C@@]3(C)[C@]1(C)CC2` [Compound T5], the “EC2x: concentration giving 2-fold induction of ARE luciferase reporter” value in the assay on NRF2 is reported as 56 nM. In addition, the IC50 in the assay with hIL17 was determined as 18 nM; at human RORγ, 115 nM; in assay [1], 22.6 nM.

As usually defined, the IC50 is the concentration that inhibits the measured activity by half. Low readings indicate higher potency, high ones lower potency.
